The target in assay [1] is KRAS Q61H (Homo sapiens, UniProt P01116+P62937, Q61H). Put plainly: Ras-Raf disruption / FRET / MOA assay (BRAF RBD). It counts as biochemical. The procedure, abridged: (§1)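 Compound-induced Ras–Cyclophilin A ternary complex disrupting BRAF RBD binding, read as IC50 from reduced TR-FRET ratio relative to DMSO. Final: Ras-GMPPNP 12.5 nM, BRAF RBD 50 nM, Cyclophilin A 25 μM, top compound 30 μM (3-fold, 10 points); 3 h at 25 °C, then 1.5 h with detection antibodies.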

Assay [2] addresses KRAS G13C (Homo sapiens, UniProt P01116+P62937, G13C). Put plainly: Ras-Raf disruption / FRET / MOA assay (BRAF RBD). It counts as biochemical. The settings on record: KRAS G13C FRET data IC50, Ras-Raf disruption, with Cyclophilin A. The gist of the method: as §1
Assay [3] deals with NRAS Q61K (Homo sapiens, UniProt P01111+P62937, Q61K). Put plainly: Ras-Raf disruption / FRET / MOA assay (BRAF RBD). It counts as biochemical. The gist of the method: as §1
In assay [4] the target is NRAS Q61R (Homo sapiens, UniProt P01111+P62937, Q61R). The assay is described as follows: Ras-Raf disruption / FRET / MOA assay (BRAF RBD). It counts as biochemical. The procedure, abridged:
as §1

Assay [5] deals with KRAS G13D (Homo sapiens, UniProt P01116+P62937, G13D). The assay is described as follows: Ras-Raf disruption / FRET / MOA assay (BRAF RBD). The settings on record: KRAS G13D FRET data IC50, Ras-Raf disruption, with Cyclophilin A. It counts as biochemical. The gist of the method: as §1
The target of assay [6] is KRAS G12D (Homo sapiens, UniProt P01116+P62937, G12D). Put plainly: Ras-Raf disruption / FRET / MOA assay (BRAF RBD). It is filed as biochemical. The settings on record: KRAS G12D FRET data IC50, Ras-Raf disruption, with Cyclophilin A. The gist of the method:
as §1

Assay [7] deals with KRAS G12V (Homo sapiens, UniProt P01116+P62937, G12V). Put plainly: Ras-Raf disruption / FRET / MOA assay (BRAF RBD). It is filed as biochemical. As to conditions: KRAS G12V FRET data IC50, Ras-Raf disruption, with Cyclophilin A. The gist of the method: as §1
Assay [8] deals with NRAS G12C (Homo sapiens, UniProt P01111+P62937, G12C). Put plainly: Ras-Raf disruption / FRET / MOA assay (BRAF RBD). As to conditions: NRAS G12C FRET data IC50, NRAS G12C. It is filed as biochemical. The gist of the method: as §1
In assay [9] the target is KRAS G12S (Homo sapiens, UniProt P01116+P62937, G12S). Put plainly: Ras-Raf disruption / FRET / MOA assay (BRAF RBD). It is filed as biochemical. The settings on record: KRAS G12S FRET data IC50, Ras-Raf disruption, with Cyclophilin A. The gist of the method: as §1
Assay [10] addresses KRAS WT (Homo sapiens, UniProt P01116+P62937). Put plainly: Ras-Raf disruption / FRET / MOA assay (BRAF RBD). The settings on record: KRAS WT FRET data IC50, Ras-Raf disruption, with Cyclophilin A. It counts as biochemical. The procedure, abridged: as §1
Assay [11] deals with NRAS WT (Homo sapiens, UniProt P01111+P62937). Put plainly: Ras-Raf disruption / FRET / MOA assay (BRAF RBD). It is filed as biochemical. The procedure, abridged: as §1
In assay [12] the test system is AsPC-1 (K-Ras G12D). Put plainly: Potency assay: pERK. It counts as cell-based. As to conditions: Homo sapiens, ASPC1, read-out: pERK EC50.
Assay [13] has as its target KRAS G12C (Homo sapiens, UniProt P01116+P62937, G12C). The assay is described as follows: Ras-Raf disruption / FRET / MOA assay (BRAF RBD). It counts as biochemical. The settings on record: KRAS G12C FRET data IC50, Ras-Raf disruption, with Cyclophilin A. The gist of the method: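 TR-FRET read-out after 1.5 h with anti-His Eu-W1024 (10 nM) and anti-GST APC (50 nM), following 3 h at 25 °C of compound (top 30 μM, 3-fold, 10 points) with 25 μM Cyclophilin A, 12.5 nM GMPPNP-loaded K-Ras G12C and 50 nM BRAF RBD; IC50 reported.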

Assay [14] relates to NCI-H358 (K-Ras G12C). The assay is described as follows: CellTiter-Glo cell viability assay. It is filed as cell-based. As to conditions: Homo sapiens, NCI-H358, 120 h, read-out: H358 Cell Viability assay data IC50, K-Ras G12C, 5-day treatment. The gist of the method:
(§2)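 Percent-of-DMSO luminescence values (CellTiter-Glo, day 5, plates equilibrated ~30 minutes at ambient temperature) were curve-fitted using a 4-parameter logistic equation; compounds had been added straight into wells containing the cells.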
Background: Cellular ATP, detected with luciferase, serves as a proxy for viable cell number.

For assay [15], the system named is AsPC-1 (K-Ras G12D). The assay is described as follows: CellTiter-Glo cell viability assay. It counts as cell-based. As to conditions: Homo sapiens, ASPC1, 120 h, read-out: AsPC-1 Cell Viability assay data IC50, K-Ras G12D, 5-day treatment. The procedure, abridged: as §2

Some results are limits rather than exact numbers.

KRAS Q61H, sequence (P01116 1-169 isoform P01116-2 Q61H limits assumed): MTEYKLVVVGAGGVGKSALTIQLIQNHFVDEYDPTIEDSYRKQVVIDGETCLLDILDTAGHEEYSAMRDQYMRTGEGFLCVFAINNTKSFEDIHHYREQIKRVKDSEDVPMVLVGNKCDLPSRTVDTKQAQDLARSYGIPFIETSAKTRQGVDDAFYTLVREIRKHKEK
KRAS Q61H, sequence (P62937 whole entry): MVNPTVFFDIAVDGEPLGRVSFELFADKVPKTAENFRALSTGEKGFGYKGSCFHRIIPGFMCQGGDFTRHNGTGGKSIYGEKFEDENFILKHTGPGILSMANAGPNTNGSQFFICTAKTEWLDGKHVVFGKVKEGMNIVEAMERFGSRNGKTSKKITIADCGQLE
KRAS G12V, sequence (P01116 1-169 isoform P01116-2 G12V limits assumed): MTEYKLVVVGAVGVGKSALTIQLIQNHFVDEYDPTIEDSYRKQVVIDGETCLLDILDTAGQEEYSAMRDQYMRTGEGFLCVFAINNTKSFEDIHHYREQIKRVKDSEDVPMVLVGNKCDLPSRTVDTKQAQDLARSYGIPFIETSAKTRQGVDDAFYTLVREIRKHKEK
KRAS G12V, sequence (P62937 whole entry): as the sequence (P62937 whole entry) above
KRAS WT, sequence (P01116 1-169 isoform P01116-2 limits assumed): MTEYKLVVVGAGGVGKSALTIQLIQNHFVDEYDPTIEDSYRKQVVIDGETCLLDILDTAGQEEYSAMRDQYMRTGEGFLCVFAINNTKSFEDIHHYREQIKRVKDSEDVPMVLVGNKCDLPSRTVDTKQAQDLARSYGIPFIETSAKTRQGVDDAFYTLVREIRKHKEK
KRAS WT, sequence (P62937 whole entry): as the sequence (P62937 whole entry) above
KRAS G12S, sequence (P01116 1-169 isoform P01116-2 G12S limits assumed): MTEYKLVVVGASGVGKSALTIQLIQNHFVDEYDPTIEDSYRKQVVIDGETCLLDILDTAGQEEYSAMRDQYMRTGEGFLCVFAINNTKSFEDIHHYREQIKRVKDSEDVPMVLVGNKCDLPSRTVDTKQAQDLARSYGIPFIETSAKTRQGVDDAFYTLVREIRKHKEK
KRAS G12S, sequence (P62937 whole entry): as the sequence (P62937 whole entry) above
KRAS G13D, sequence (P01116 1-169 isoform P01116-2 G13D limits assumed): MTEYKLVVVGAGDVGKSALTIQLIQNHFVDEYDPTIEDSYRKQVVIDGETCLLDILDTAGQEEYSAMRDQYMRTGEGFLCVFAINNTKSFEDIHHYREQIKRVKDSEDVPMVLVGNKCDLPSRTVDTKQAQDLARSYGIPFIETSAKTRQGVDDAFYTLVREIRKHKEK
KRAS G13D, sequence (P62937 whole entry): as the sequence (P62937 whole entry) above
KRAS G12D, sequence (P01116 1-169 isoform P01116-2 G12D limits assumed): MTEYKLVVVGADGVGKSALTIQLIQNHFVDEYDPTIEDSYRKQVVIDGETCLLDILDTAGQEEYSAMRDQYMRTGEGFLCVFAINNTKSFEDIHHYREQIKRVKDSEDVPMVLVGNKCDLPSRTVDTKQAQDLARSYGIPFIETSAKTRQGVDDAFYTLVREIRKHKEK
KRAS G12D, sequence (P62937 whole entry): as the sequence (P62937 whole entry) above
NRAS Q61R, sequence (P01111 whole entry Q61R): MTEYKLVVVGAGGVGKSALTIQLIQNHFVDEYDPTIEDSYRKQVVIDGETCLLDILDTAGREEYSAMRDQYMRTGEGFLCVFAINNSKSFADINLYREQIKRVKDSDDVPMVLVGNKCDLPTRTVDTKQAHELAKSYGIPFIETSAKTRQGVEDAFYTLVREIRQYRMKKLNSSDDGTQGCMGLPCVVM
NRAS Q61R, sequence (P62937 whole entry): as the sequence (P62937 whole entry) above
NRAS WT, sequence (P01111 whole entry): as the sequence (P01111 whole entry Q61R) above, with R61Q counted along it
NRAS WT, sequence (P62937 whole entry): as the sequence (P62937 whole entry) above
NRAS Q61K, sequence (P01111 whole entry Q61K): as the sequence (P01111 whole entry Q61R) above, with R61K counted along it
NRAS Q61K, sequence (P62937 whole entry): as the sequence (P62937 whole entry) above
NRAS G12C, sequence (P01111 whole entry G12C): as the sequence (P01111 whole entry Q61R) above, with G12C, R61Q counted along it
NRAS G12C, sequence (P62937 whole entry): as the sequence (P62937 whole entry) above
KRAS G12C, sequence (P01116 1-169 isoform P01116-2 G12C limits assumed): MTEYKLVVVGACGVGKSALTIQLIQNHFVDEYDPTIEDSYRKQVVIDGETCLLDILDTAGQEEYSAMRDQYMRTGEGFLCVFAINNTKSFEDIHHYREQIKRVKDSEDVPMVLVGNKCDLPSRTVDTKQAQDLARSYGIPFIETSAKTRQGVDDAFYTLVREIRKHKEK
KRAS G12C, sequence (P62937 whole entry): as the sequence (P62937 whole entry) above
KRAS G13C, sequence (P01116 1-169 isoform P01116-2 G13C limits assumed): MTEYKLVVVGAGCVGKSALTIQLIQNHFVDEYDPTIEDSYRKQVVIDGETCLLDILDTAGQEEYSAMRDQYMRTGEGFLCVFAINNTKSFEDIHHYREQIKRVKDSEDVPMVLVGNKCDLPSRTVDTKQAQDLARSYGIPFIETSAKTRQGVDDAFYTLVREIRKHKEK
KRAS G13C, sequence (P62937 whole entry): as the sequence (P62937 whole entry) above

As usually defined, the IC50 is the concentration that inhibits the measured activity by half. For orientation: EC50 means the concentration needed to bring the measured effect to its halfway point. Consider `CCn1c(-c2cccnc2[C@H](C)OC)c2c3cc(ccc31)-c1cc(O)cc(c1)C[C@H](NC(=O)[C@H](C(C)C)N(C)C(=O)CN(C)C(=O)[C@@H]1N[C@H]1C(F)(F)F)C(=O)N1CCC[C@H](N1)C(=O)OCC(C)(C)C2` [Example 260], for which the IC50 is 10 to 100 nM in assay [1]; less than 10 nM in [2]; 10 to 100 nM in assay [3]; 100 to 1000 nM in [4]; 10 to 100 nM in assay [5]; 10 to 100 nM in assay [6]. Further, the half-inhibitory concentration (IC50) in assay [7], in [8], in [9], in assay [10], in [11] and in assay [13] was 10 to 100 nM throughout. In addition, the IC50 in assay [14] fell in the range of 10 to 100 nM; in assay [15] it was 100 to 1000 nM. Also, the concentration for a half-maximal effect (EC50) in assay [12] was less than 5000 nM.

Turning to `CCn1c(-c2cccnc2[C@H](C)OC)c2c3cc(ccc31)-c1cc(O)cc(c1)C[C@H](NC(=O)[C@H](C(C)C)N(C)C(=O)CN(C)C(=O)[C@H]1N[C@@H]1C(F)(F)F)C(=O)N1CCC[C@H](N1)C(=O)OCC(C)(C)C2` [Example 261], the IC50 in assay [1] is 10 to 100 nM; in assay [2], 10 to 100 nM; in assay [3], 100 to 1000 nM; in assay [4], 100 to 1000 nM; in assay [5], 10 to 100 nM; in assay [6], 10 to 100 nM. Besides, the IC50 in assay [7], in assay [8], in [9], in assay [10], in assay [11] and in [13] was 10 to 100 nM throughout. Further, the figures for the IC50 in assay [14] and in assay [15] were less than 10 nM and 100 to 1000 nM, respectively. Moreover, the EC50 in [12] was less than 5000 nM.

For the molecule `CC[C@H]1N[C@H]1C(=O)N(C)CC(=O)N(C)[C@H](C(=O)N[C@H]1Cc2cc(O)cc(c2)-c2ccc3c(c2)c(c(-c2cccnc2[C@H](C)OC)n3CC)CC(C)(C)COC(=O)[C@@H]2CCCN(N2)C1=O)C(C)C` [Example 262], the IC50 lay within 10 to 100 nM in assay [1]; 10 to 100 nM in [2]; 100 to 1000 nM in [3]; 100 to 1000 nM in assay [4]; 10 to 100 nM in assay [5]; 100 to 1000 nM in [6]. Further, the IC50 in assay [7], in [8], in assay [9], in [10], in assay [11] and in assay [13] was 10 to 100 nM throughout. Also, the figures for the IC50 in assay [14] and in assay [15] were 10 to 100 nM and 100 to 1000 nM, respectively. Moreover, the concentration giving a half-maximal response (EC50) in assay [12] is less than 5000 nM.

Regarding `CC[C@@H]1N[C@@H]1C(=O)N(C)CC(=O)N(C)[C@H](C(=O)N[C@H]1Cc2cc(O)cc(c2)-c2ccc3c(c2)c(c(-c2cccnc2[C@H](C)OC)n3CC)CC(C)(C)COC(=O)[C@@H]2CCCN(N2)C1=O)C(C)C` [Example 263], the IC50 lay within 10 to 100 nM in assay [1]; 10 to 100 nM in assay [2]; 100 to 1000 nM in [3]; 100 to 1000 nM in assay [4]; 10 to 100 nM in assay [5]; 10 to 100 nM in [6]. For the same molecule, the IC50 in [7] was 10 to 100 nM; in assay [8], less than 10 nM; in assay [9], 10 to 100 nM; in assay [10] it was 10 to 100 nM; in assay [11] it was 10 to 100 nM; in [13], less than 10 nM. The figures for the IC50 in [14] and in assay [15] were 10 to 100 nM and 100 to 1000 nM, respectively. For the same molecule, in [12], the 50% effective concentration (EC50) was less than 5000 nM.

On to `CCn1c(-c2cccnc2[C@H](C)OC)c2c3cc(ccc31)-c1cc(O)cc(c1)C[C@H](NC(=O)[C@H](C(C)C)N(C)C(=O)CN(C)C(=O)[C@@H]1N[C@@H]1C(C)C)C(=O)N1CCC[C@H](N1)C(=O)OCC(C)(C)C2` [Example 264], for which the IC50 is less than 10 nM in assay [1]; 10 to 100 nM in assay [2]; 10 to 100 nM in [3]; 10 to 100 nM in assay [4]; 10 to 100 nM in assay [5]; 10 to 100 nM in assay [6]. Also, the IC50 was 10 to 100 nM in [7]; less than 10 nM in assay [8]; less than 10 nM in assay [9]; less than 10 nM in [10]; less than 10 nM in assay [11]; less than 10 nM in assay [13]. In addition, the IC50 is 10 to 100 nM in assay [14] and 100 to 1000 nM in [15]. Moreover, the concentration for a half-maximal effect (EC50) in assay [12] is less than 5000 nM.

`CCn1c(-c2cccnc2[C@H](C)OC)c2c3cc(ccc31)-c1cc(O)cc(c1)C[C@H](NC(=O)[C@H](C(C)C)N(C)C(=O)CN(C)C(=O)[C@H]1N[C@H]1C(C)C)C(=O)N1CCC[C@H](N1)C(=O)OCC(C)(C)C2` [Example 265]: the IC50 fell in the range of 10 to 100 nM in assay [1]; 10 to 100 nM in assay [2]; 100 to 1000 nM in [3]; 100 to 1000 nM in [4]; 10 to 100 nM in assay [5]; 10 to 100 nM in assay [6]. In addition, the IC50 in assay [7], in [8], in assay [9], in assay [10], in [11] and in assay [13] was 10 to 100 nM throughout. Besides, the IC50 in assay [14] is 10 to 100 nM; in [15], 100 to 1000 nM. In addition, the EC50 in [12] is less than 5000 nM.

Take `CCn1c(-c2cccnc2[C@H](C)OC)c2c3cc(ccc31)-c1cc(O)cc(c1)C[C@H](NC(=O)[C@H](C(C)C)N(C)C(=O)CN(C)C(=O)[C@H]1CN1CCCOC(C)=O)C(=O)N1CCC[C@H](N1)C(=O)OCC(C)(C)C2` (stereo partly drawn) [Example 266]: the IC50 in assay [1] lay within 10 to 100 nM; in assay [2], 10 to 100 nM; in assay [3], 100 to 1000 nM; in assay [4], 100 to 1000 nM; in assay [5] it was 100 to 1000 nM; in assay [6] it was 100 to 1000 nM. The IC50 in [7] is 100 to 1000 nM; in [8] it was less than 10 nM; in assay [9] it was 10 to 100 nM; in [10] it was 100 to 1000 nM; in [11] it was 100 to 1000 nM; in [13], less than 10 nM. For the same molecule, the values for the IC50 in assay [14] and in [15] were less than 10 nM and 100 to 1000 nM, respectively. In addition, the concentration giving a half-maximal response (EC50) in assay [12] is less than 5000 nM.

As to `CCn1c(-c2cccnc2[C@H](C)OC)c2c3cc(ccc31)-c1cc(O)cc(c1)C[C@H](NC(=O)[C@H](C(C)C)N(C)C(=O)CN(C)C(=O)[C@H]1CN1CC(=O)N(C)C)C(=O)N1CCC[C@H](N1)C(=O)OCC(C)(C)C2` (stereo partly drawn) [Example 270], the IC50 fell in the range of 100 to 1000 nM in assay [1]; 10 to 100 nM in assay [2]; 1000 to 10000 nM in assay [3]; 1000 to 10000 nM in assay [4]; 100 to 1000 nM in [5]; 100 to 1000 nM in [6]. Also, the IC50 in assay [7] is 100 to 1000 nM; in [8], less than 10 nM; in assay [9], 10 to 100 nM; in [10], 100 to 1000 nM; in assay [11], 100 to 1000 nM; in [13], less than 10 nM. In addition, the IC50 fell in the range of 10 to 100 nM in assay [14] and 100 to 1000 nM in assay [15]. For the same molecule, the EC50 in [12] is less than 5000 nM.

(Values after patent US20230233569A1 (Revolution Medicines, Inc., priority 2020, published 2023).)
